Assays:
Experiment in all cases: Screening in cancer cell strains, cell survival rate with PrestoBlue
Assay type in all cases: cell-based
[1] = system: large intestine cancer cell strain HCT116 (p53 wildtype); settings: Day 5 after transfection with RNAiMAX, compared with miR-34a-5p
Protocol: (§1) The 349 types of aging induction miRNA (mirVana; Ambion) obtained from screening were transfected into various cancer cell strains (large intestine cancer cell strain HCT116 (p53 wildtype and p53 deletion), pancreatic cancer cell strains BxPC-3 and CFPAC-1, and tongue cancer cell strain HSC-4) with an auto dispenser Bravo (Agilent).
(§2) Transfection was carried out with the following protocol.
(§3) 1: To 70 μL of serum free medium (SFM) was added 0.35 μL of RNAiMAX (Invitrogen).
(§4) 2: The solution from 1 was added to a 96-well plate (μ-plate; ibidi) with Bravo.
(§5) 3: To 2 was added 0.7 μL of miRNA (Stock Conc. 200 nM) with Bravo, and this was mixed by pipetting.
(§6) 4: This was incubated at room temperature for 20 minutes.
(§7) 5: A cell suspension diluted to 3.5×10^4 cells/mL was dispensed at 70 μL each with Bravo.
(§8) 6: This was incubated at 37° C. under 5% CO2 condition.
(§9) Setting the day of transfection as Day 0, on Day 5 the cell survival rate was evaluated with PrestoBlue (Invitrogen). The operating protocol is shown below.
(§10) 1. The medium was exchanged to a medium comprising PrestoBlue diluted 20-folds, and this was incubated at 37° C. for 1 hour. 2. The fluorescence value (Ex/Em=560 nm/590 nm) was measured with Enspire (Perkin Elmer).
(§11) 3. The cell survival rate was determined by setting the fluorescence value obtained from the well with only the reagent as the background.

[2] = system: large intestine cancer cell strain HCT116 (p53 deletion); settings: Day 5 after transfection with RNAiMAX, compared with miR-34a-5p
Protocol: as §1, §2, §3, §4, §5, §6, §7, §8, §9, §10, §11

[3] = system: tongue cancer cell strain HSC-4; settings: HSC-4, Day 5 after transfection with RNAiMAX, compared with miR-34a-5p
Protocol: as §1, §2, §3, §4, §5, §6, §7, §8, §9, §10, §11

[4] = system: pancreatic cancer cell strain BxPC-3; settings: BxPC-3, Day 5 after transfection with RNAiMAX, compared with miR-34a-5p
Protocol: as §1, §2, §3, §4, §5, §6, §7, §8, §9, §10, §11

[5] = system: pancreatic cancer cell strain CFPAC-1; settings: CFPAC-1, Day 5 after transfection with RNAiMAX, compared with miR-34a-5p
Protocol: as §1, §2, §3, §4, §5, §6, §7, §8, §9, §10, §11

| Substance | suppression of cell proliferation (cell survival rate, PrestoBlue) [1] | suppression of cell proliferation (cell survival rate, PrestoBlue) [2] | suppression of cell proliferation (cell survival rate, PrestoBlue) [3] | suppression of cell proliferation (cell survival rate, PrestoBlue) [4] | suppression of cell proliferation (cell survival rate, PrestoBlue) [5] |
| --- | --- | --- | --- | --- | --- |
| miR-657-3p: Mature-miRNA, GGCAGGUUCUCACCCUCUCUAGG (SEQ ID NO. 11) (listed as RNA, chemistry not given here; listed as Homo sapiens) | suppress cell proliferation more significantly than miR-34-5p | suppress cell proliferation more significantly than miR-34-5p | suppress cell proliferation more significantly than miR-34-5p | suppress cell proliferation more significantly than miR-34-5p | suppress cell proliferation more significantly than miR-34-5p |
| miR-631-5p: Mature-miRNA, AGACCUGGCCCAGACCUCAGC (SEQ ID NO. 8) (listed as RNA, chemistry not given here; listed as Homo sapiens) | suppress cell proliferation more significantly than miR-34-5p | suppress cell proliferation more significantly than miR-34-5p | suppress cell proliferation more significantly than miR-34-5p | suppress cell proliferation more significantly than miR-34-5p | suppress cell proliferation more significantly than miR-34-5p |
| miR-137-3p: Mature-miRNA, UUAUUGCUUAAGAAUACGCGUAG (SEQ ID NO. 5) (listed as RNA, chemistry not given here; listed as Homo sapiens) | suppress cell proliferation more significantly than miR-34-5p | suppress cell proliferation more significantly than miR-34-5p | suppress cell proliferation more significantly than miR-34-5p | suppress cell proliferation more significantly than miR-34-5p | suppress cell proliferation more significantly than miR-34-5p |
